Experimental data as given in US20170335336A1, “USE OF A SELECTABLE MARKER GENE IN SUGAR BEET PROTOPLASTS TRANSFORMATION METHOD AND SYSTEM” (SESVanderHave N.V., priority 2014, published 2017).

Assays:
[1] = system: non-transformed protoplasts; test: control experiment: non-transformed protoplasts on selection media; format: cell-based, sugar beet (Beta vulgaris L.)
Method: Transformation experiments were performed using plasmid DNA (pS189) according to the standard PEG transformation system under two selection media containing 5×10^−9M foramsulfuron (ALF) and 5×10^−11M ethoxysulfuron (ALE) concentrations. The selection of only the transformed protoplasts were evidenced by the number of calli recovered from each transformation experiment. […] So far seven transformation experiments were performed for ALF and six experiments for ALE. From ALF experiments, about 1799 buds and 89 regenerated plantlets were obtained (Table 3).

[2] = system: wild type sugar beet protoplasts; test: killing curve for optimal herbicide concentration; format: cell-based, sugar beet (Beta vulgaris L.); settings: killing curve (Table 1 and Table 2)
Method: The optimal herbicide (ALS inhibitor) concentration used in the method according to the invention was determined from a killing curve concentration for two preferred ALS inhibitors (Foramsulfuron and Ethoxysulfuron) and was established as follows: • To use optimal concentration of herbicide for selection of transformed sugar beet protoplasts, killing curve was developed on wild type sugar beet protoplasts with the following concentrations (Table 1 and Table 2). Based on the results obtained from the killing curve experiments concentration of 5×10^−9M for foramsulfuron and 5×10^−11M for ethoxysulfuron were selected for using with transformed sugar beet protoplasts with pS189 plasmid DNA carrying the mutated BvALS nucleotide sequence.

Row | Compound | calli / survival of cells on selection medium ([1]; selection medium containing 5×10^−11M ethoxysulfuron (ALE)) | concentration selected from killing curve experiments for selection of transformed protoplasts [2] [nM] | calli / survival of cells on selection medium ([1]; selection medium containing 5×10^−9M foramsulfuron (ALF))
1 | CCOc1ccccc1OS(=O)(=O)NC(=O)Nc1nc(OC)cc(OC)n1 [ethoxysulfuron] | did not result in any calli or survival of cells | 0.05 | –
2 | COc1cc(OC)nc(NC(=O)NS(=O)(=O)c2cc(NC=O)ccc2C(=O)N(C)C)n1 [foramsulfuron] | – | 5 | did not result in any calli or survival of cells
